Results published in PubChem BioAssay (NCI).
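Where inhibition never reached the appropriate level, the endpoint shown equals the highest concentration tested. Otherwise, values were interpolated linearly from a five-concentration, 48-hour dose response in 96-well plates. GI50 marks 50% less growth. At the TGI there is no net growth.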

What was measured:
Test in all cases: growth of human tumour cells (NCI), 48 h
MDA-MB-231 breast = test system: MDA-MB-231 breast
IGROV1 ovarian = test system: IGROV1 ovarian
SF-539 CNS = test system: SF-539 CNS
COLO 205 colon = test system: COLO 205 colon
NCI-H460 lung = test system: NCI-H460 lung
RXF 393 renal = test system: RXF 393 renal
NCI/ADR-RES ovarian = test system: NCI/ADR-RES ovarian
SW-620 colon = test system: SW-620 colon
CCRF-CEM leukemia = test system: CCRF-CEM leukemia
KM12 colon = test system: KM12 colon
M14 melanoma = test system: M14 melanoma
OVCAR-4 ovarian = test system: OVCAR-4 ovarian
HCC-2998 colon = test system: HCC-2998 colon
LOX IMVI melanoma = test system: LOX IMVI melanoma
SR leukemia = test system: SR leukemia
SK-MEL-2 melanoma = test system: SK-MEL-2 melanoma
HCT-15 colon = test system: HCT-15 colon
SNB-19 CNS = test system: SNB-19 CNS
SK-OV-3 ovarian = test system: SK-OV-3 ovarian
EKVX NSCLC = test system: EKVX NSCLC
UACC-62 melanoma = test system: UACC-62 melanoma
A549 NSCLC = test system: A549 NSCLC
HOP-92 NSCLC = test system: HOP-92 NSCLC
A498 renal = test system: A498 renal
HCT-116 colon = test system: HCT-116 colon
BT-549 breast = test system: BT-549 breast
U251 CNS = test system: U251 CNS
CAKI-1 renal = test system: CAKI-1 renal
SNB-75 CNS = test system: SNB-75 CNS
MDA-MB-435 = test system: MDA-MB-435
SN12C renal = test system: SN12C renal
OVCAR-3 ovarian = test system: OVCAR-3 ovarian
T-47D breast = test system: T-47D breast
786-0 renal = test system: 786-0 renal
HOP-62 NSCLC = test system: HOP-62 NSCLC
DU-145 prostate = test system: DU-145 prostate
NCI-H23 lung = test system: NCI-H23 lung
SK-MEL-5 melanoma = test system: SK-MEL-5 melanoma
OVCAR-8 ovarian = test system: OVCAR-8 ovarian
MOLT-4 leukemia = test system: MOLT-4 leukemia
MALME-3M melanoma = test system: MALME-3M melanoma
SF-295 CNS = test system: SF-295 CNS
SK-MEL-28 melanoma = test system: SK-MEL-28 melanoma
MCF7 breast = test system: MCF7 breast
ACHN renal = test system: ACHN renal
NCI-H226 lung = test system: NCI-H226 lung
OVCAR-5 ovarian = test system: OVCAR-5 ovarian
HT29 colon = test system: HT29 colon
K-562 leukemia = test system: K-562 leukemia
TK-10 renal = test system: TK-10 renal
NCI-H522 lung = test system: NCI-H522 lung
HL-60(TB) leukemia = test system: HL-60(TB) leukemia
UO-31 renal = test system: UO-31 renal
PC-3 prostate = test system: PC-3 prostate
SF-268 CNS = test system: SF-268 CNS
HS 578T breast = test system: HS 578T breast
UACC-257 melanoma = test system: UACC-257 melanoma

**Q.** Which results are given for `O=C(Nc1ccc(Cl)cc1)Nc1nc2ccc([N+](=O)[O-])cc2s1`?
**A.** GI50 (MDA-MB-231 breast): 1120 nM; TGI (MDA-MB-231 breast): 2920 nM; GI50 (IGROV1 ovarian): 1080 nM; TGI (IGROV1 ovarian): 2680 nM; GI50 (SF-539 CNS): 915 nM; TGI (SF-539 CNS): 2350 nM; GI50 (COLO 205 colon): 1700 nM; TGI (COLO 205 colon): 3290 nM; GI50 (NCI-H460 lung): 468 nM; TGI (NCI-H460 lung): 1700 nM; GI50 (RXF 393 renal): 587 nM; TGI (RXF 393 renal): 1940 nM; GI50 (NCI/ADR-RES ovarian): 880 nM; TGI (NCI/ADR-RES ovarian): 2280 nM; GI50 (SW-620 colon): 840 nM; TGI (SW-620 colon): 2340 nM; GI50 (CCRF-CEM leukemia): 393 nM; TGI (CCRF-CEM leukemia): 1850 nM; GI50 (KM12 colon): 642 nM; TGI (KM12 colon): 2310 nM; GI50 (M14 melanoma): 815 nM; TGI (M14 melanoma): 2240 nM; GI50 (OVCAR-4 ovarian): 573 nM; TGI (OVCAR-4 ovarian): 3130 nM; GI50 (HCC-2998 colon): 590 nM; TGI (HCC-2998 colon): 2080 nM; GI50 (LOX IMVI melanoma): 727 nM; TGI (LOX IMVI melanoma): 2060 nM; GI50 (SR leukemia): 566 nM; TGI (SR leukemia): 2280 nM; GI50 (SK-MEL-2 melanoma): 554 nM; TGI (SK-MEL-2 melanoma): 2320 nM; GI50 (HCT-15 colon): 675 nM; TGI (HCT-15 colon): 2110 nM; GI50 (SNB-19 CNS): 735 nM; TGI (SNB-19 CNS): 2750 nM; GI50 (SK-OV-3 ovarian): 843 nM; TGI (SK-OV-3 ovarian): 4510 nM; GI50 (EKVX NSCLC): 886 nM; TGI (EKVX NSCLC): 2660 nM; GI50 (UACC-62 melanoma): 485 nM; TGI (UACC-62 melanoma): 2140 nM; GI50 (A549 NSCLC): 837 nM; TGI (A549 NSCLC): 3430 nM; GI50 (HOP-92 NSCLC): 187 nM; TGI (HOP-92 NSCLC): 628 nM; GI50 (A498 renal): 275 nM; TGI (A498 renal): 996 nM; GI50 (HCT-116 colon): 346 nM; TGI (HCT-116 colon): 1270 nM; GI50 (BT-549 breast): 593 nM; TGI (BT-549 breast): 1760 nM; GI50 (U251 CNS): 606 nM; TGI (U251 CNS): 2570 nM; GI50 (CAKI-1 renal): 653 nM; TGI (CAKI-1 renal): 2510 nM; GI50 (SNB-75 CNS): 952 nM; TGI (SNB-75 CNS): 3510 nM; GI50 (MDA-MB-435): 729 nM; TGI (MDA-MB-435): 2200 nM; GI50 (SN12C renal): 647 nM; TGI (SN12C renal): 2590 nM; GI50 (OVCAR-3 ovarian): 435 nM; TGI (OVCAR-3 ovarian): 1590 nM; GI50 (T-47D breast): 308 nM; TGI (T-47D breast): 1280 nM; GI50 (786-0 renal): 776 nM; TGI (786-0 renal): 2390 nM; GI50 (HOP-62 NSCLC): 1190 nM; TGI (HOP-62 NSCLC): 3130 nM; GI50 (DU-145 prostate): 1110 nM; TGI (DU-145 prostate): 5150 nM; GI50 (NCI-H23 lung): 332 nM; TGI (NCI-H23 lung): 1260 nM; GI50 (SK-MEL-5 melanoma): 365 nM; TGI (SK-MEL-5 melanoma): 1330 nM; GI50 (OVCAR-8 ovarian): 1270 nM; TGI (OVCAR-8 ovarian): 4700 nM; GI50 (MOLT-4 leukemia): 438 nM; TGI (MOLT-4 leukemia): 1980 nM; GI50 (MALME-3M melanoma): 467 nM; TGI (MALME-3M melanoma): 1870 nM; GI50 (SF-295 CNS): 728 nM; TGI (SF-295 CNS): 2120 nM; GI50 (SK-MEL-28 melanoma): 663 nM; TGI (SK-MEL-28 melanoma): 2020 nM; GI50 (MCF7 breast): 460 nM; TGI (MCF7 breast): 1910 nM; GI50 (ACHN renal): 751 nM; TGI (ACHN renal): 2290 nM; GI50 (NCI-H226 lung): 777 nM; TGI (NCI-H226 lung): 2460 nM; GI50 (OVCAR-5 ovarian): 1850 nM; TGI (OVCAR-5 ovarian): 4450 nM; GI50 (HT29 colon): 2570 nM; TGI (HT29 colon): 7140 nM; GI50 (K-562 leukemia): 375 nM; TGI (K-562 leukemia): 1550 nM; GI50 (TK-10 renal): 889 nM; TGI (TK-10 renal): 4320 nM; GI50 (NCI-H522 lung): 378 nM; TGI (NCI-H522 lung): 2890 nM; GI50 (HL-60(TB) leukemia): 604 nM; TGI (HL-60(TB) leukemia): 2020 nM; GI50 (UO-31 renal): 545 nM; TGI (UO-31 renal): 2450 nM; GI50 (PC-3 prostate): 380 nM; TGI (PC-3 prostate): 1630 nM; GI50 (SF-268 CNS): 1090 nM; TGI (SF-268 CNS): 3460 nM; GI50 (HS 578T breast): 1170 nM; TGI (HS 578T breast): 3870 nM; GI50 (UACC-257 melanoma): 639 nM; TGI (UACC-257 melanoma): 2790 nM
